Here are results for 18 compounds from ChEMBL document CHEMBL2150953, “Synthesis and antiproliferative activity of helonioside A, 3',4',6'-tri-O-feruloylsucrose, lapathoside C and their analogs” (Eur J Med Chem, 2012).

Holding throughout (format): functional, cell-based
Assay [1] deals with HeLa. Briefly: Cytotoxicity against human HeLa cells after 48 hrs by MTS assay. On the technique in general: Tetrazolium dyes change colour on reduction, which living cells bring about.
Assay [2] relates to HeLa. Briefly: Cytotoxicity against human HeLa cells after 24 hrs by MTS assay.
For assay [3], the system named is HeLa. Briefly: Cytotoxicity against human HeLa cells by MTS assay. The conditions noted are these: TDE = time-dependent effect.

A word on the IC50: it is the concentration at which inhibition is half-maximal. Lower therefore signals greater potency in that assay. Compound `COc1cc(/C=C/C(=O)OC[C@H]2O[C@H](O[C@]3(CO)O[C@H](COC(=O)/C=C/c4ccc(OC(C)=O)cc4)[C@@H](O)[C@@H]3OC(=O)/C=C/c3ccc(OC(C)=O)cc3)[C@H](O)[C@@H](OC(=O)/C=C/c3ccc(OC(C)=O)c(OC)c3)[C@@H]2O)ccc1OC(C)=O` yielded an IC50 in the assay with HeLa [1] of 3.14 µM.
Regarding `COc1cc(/C=C/C(=O)OC[C@H]2O[C@@](CO)(O[C@H]3O[C@H](CO)[C@@H](O)[C@H](OC(=O)/C=C/c4ccc(O)c(OC)c4)[C@H]3O)[C@@H](OC(=O)/C=C/c3ccc(O)c(OC)c3)[C@@H]2OC(=O)/C=C/c2ccc(O)c(OC)c2)ccc1O`, the IC50 with HeLa [2] was determined as 7.9 µM; in the assay on HeLa [1], 1.62 µM. For the same compound, the Activity entry in the assay on HeLa [3] was “tde”.
In the case of `COc1cc(/C=C/C(=O)OC[C@H]2O[C@H](O[C@]3(CO)O[C@H](COC(=O)/C=C/c4ccc(OC(C)=O)cc4)[C@@H](O)[C@@H]3OC(=O)/C=C/c3ccc(OC(C)=O)cc3)[C@H](O)[C@@H](O)[C@@H]2O)ccc1OC(C)=O`, in the assay on HeLa [1], the IC50 is greater than 100 µM.
On to `COc1cc(/C=C/C(=O)OC[C@H]2O[C@H](O[C@]3(CO)O[C@H](COC(=O)/C=C/c4ccc(O)cc4)[C@@H](O)[C@@H]3OC(=O)/C=C/c3ccc(O)cc3)[C@H](O)[C@@H](O)[C@@H]2O)ccc1O` [LAPATHOSIDE C], for which the IC50 with HeLa [1] turned out to be 12.6 µM.
As to `COc1cc(/C=C/C(=O)OC[C@H]2O[C@H](O[C@]3(CO)O[C@H](COC(=O)/C=C/c4ccc(O)cc4)[C@@H](O)[C@@H]3OC(=O)/C=C/c3ccc(O)cc3)[C@H](O)[C@@H](OC(=O)/C=C/c3ccc(O)cc3)[C@@H]2O)ccc1O`, the IC50 in the assay on HeLa [1] is 3.12 µM.
Consider `CC(=O)Oc1ccc(/C=C/C(=O)OC[C@H]2O[C@@](CO)(O[C@H]3O[C@H](COC(=O)/C=C/c4ccc(OC(C)=O)cc4)[C@@H](O)[C@H](OC(=O)/C=C/c4ccc(OC(C)=O)cc4)[C@H]3O)[C@@H](OC(=O)/C=C/c3ccc(OC(C)=O)cc3)[C@@H]2O)cc1`, for which, in the assay with HeLa [1], the IC50 was found to be 1.86 µM.
Turning to `COc1cc(/C=C/C(=O)OC[C@H]2O[C@]3(COC(C)(C)O[C@H]4[C@H](O[C@@H]5COC(C)(C)O[C@H]5[C@@H]4O)O3)[C@@H](OC(=O)/C=C/c3ccc(O)c(OC)c3)[C@@H]2OC(=O)/C=C/c2ccc(O)c(OC)c2)ccc1O`, in the assay with HeLa [1], half-maximal inhibition (IC50) required 4.2 µM.
In the case of `COc1cc(/C=C/C(=O)OC[C@H]2O[C@]3(COC(C)(C)O[C@H]4[C@H](O[C@@H]5COC(C)(C)O[C@H]5[C@@H]4O)O3)[C@@H](OC(=O)/C=C/c3ccc(OC(C)=O)c(OC)c3)[C@@H]2O)ccc1OC(C)=O`, the values for the IC50 in the assay on HeLa [2] and with HeLa [1] were 27.9 µM and 6.01 µM, respectively. For the same compound, the Activity entry in the assay with HeLa [3] was “tde”.
In the assay on HeLa [1], `COc1cc(/C=C/C(=O)OC[C@H]2O[C@@](CO)(O[C@H]3O[C@H](CO)[C@@H](O)[C@H](O)[C@H]3O)[C@@H](OC(=O)/C=C/c3ccc(OC(C)=O)c(OC)c3)[C@@H]2O)ccc1OC(C)=O` showed an IC50 greater than 100 µM.
On the same count and under the same terms, the same measure for `O=C(/C=C/c1ccc(O)cc1)OC[C@H]1O[C@@](CO)(O[C@H]2O[C@H](COC(=O)/C=C/c3ccc(O)cc3)[C@@H](O)[C@H](OC(=O)/C=C/c3ccc(O)cc3)[C@H]2O)[C@@H](OC(=O)/C=C/c2ccc(O)cc2)[C@@H]1O`: 1.7 µM; for `COc1cc(/C=C/C(=O)OC[C@H]2O[C@]3(COC(C)(C)O[C@H]4[C@H](O[C@@H]5COC(C)(C)O[C@H]5[C@@H]4O)O3)[C@@H](O)[C@@H]2O)ccc1OC(C)=O`: greater than 100 µM; for `COc1cc(/C=C/C(=O)OC[C@H]2O[C@@](CO)(O[C@H]3O[C@H](CO)[C@@H](O)[C@H](O)[C@H]3O)[C@@H](OC(=O)/C=C/c3ccc(O)c(OC)c3)[C@@H]2O)ccc1O` [HELONIOSIDE A]: greater than 100 µM.
For `CC[C@@]1(O)C(=O)OCc2c1cc1n(c2=O)Cc2cc3ccccc3nc2-1` [CAMPTOTHECIN], in the assay with HeLa [1], the IC50 came out at 0.4 µM.
Same read-out and setting: as for `COc1cc(/C=C/C(=O)OC[C@H]2O[C@@](CO)(O[C@H]3O[C@H](CO)[C@@H](O)[C@H](O)[C@H]3O)[C@@H](OC(=O)/C=C/c3ccc(OC(C)=O)c(OC)c3)[C@@H]2OC(=O)/C=C/c2ccc(OC(C)=O)c(OC)c2)ccc1OC(C)=O`, the figure is 1.7 µM.
Still for that read-out and setting: as for `COc1cc(/C=C/C(=O)OC[C@H]2O[C@]3(COC(C)(C)O[C@H]4[C@H](O[C@@H]5COC(C)(C)O[C@H]5[C@@H]4O)O3)[C@@H](OC(=O)/C=C/c3ccc(OC(C)=O)c(OC)c3)[C@@H]2OC(=O)/C=C/c2ccc(OC(C)=O)c(OC)c2)ccc1OC(C)=O`, the figure is 0.16 µM.
Same read-out and setting: the same measure for `COc1cc(/C=C/C(=O)OC[C@H]2O[C@H](O[C@]3(CO)O[C@H](COC(=O)/C=C/c4ccc(O)cc4)[C@@H](O)[C@@H]3OC(=O)/C=C/c3ccc(O)cc3)[C@H](O)[C@@H](OC(=O)/C=C/c3ccc(O)c(OC)c3)[C@@H]2O)ccc1O`: 1.67 µM.
In the case of `COc1cc(/C=C/C(=O)OC[C@H]2O[C@@](CO)(O[C@H]3O[C@H](CO)[C@@H](O)[C@H](O)[C@H]3O)[C@@H](OC(=O)/C=C/c3ccc(O)c(OC)c3)[C@@H]2OC(=O)/C=C/c2ccc(O)c(OC)c2)ccc1O`, the IC50 turned out to be 55.1 µM with HeLa [2] and 22.4 µM in the assay on HeLa [1]. The Activity result with HeLa [3] was “tde”.
`COc1cc(/C=C/C(=O)OC[C@H]2O[C@]3(COC(C)(C)O[C@H]4[C@H](O[C@@H]5COC(C)(C)O[C@H]5[C@@H]4OC(=O)/C=C/c4ccc(OC(C)=O)c(OC)c4)O3)[C@@H](OC(=O)/C=C/c3ccc(OC(C)=O)c(OC)c3)[C@@H]2OC(=O)/C=C/c2ccc(OC(C)=O)c(OC)c2)ccc1OC(C)=O`: it took 3.22 µM to reach half-maximal inhibition in the assay with HeLa [1] (IC50).
